Key:
[1] = system: CEM-SS; test: Inhibitory activity against HIV-1 virus replication as determined by an XTT endpoint by 50%; assay type: functional; settings: Homo sapiens, read-out: ED50 (the source's name)
[2] = target: Human immunodeficiency virus type 1 protease (Human immunodeficiency virus 1, UniProt Q72874); test: Inhibitory activity against HIV-1 protease cleavage of [V-S-Q-N-(beta-naphthylalanine)-P-I-V)
[3] = system: H9; test: Inhibitory activity against human T cell lymphoma (H9) growth by 50 %.; assay type: functional
[4] = Lipophilicity index (RP-HPLC pH 7); assay type: physicochemical; settings: buffer
[5] = Plasma elimination half life was determined for the compound; assay type: ADME, cell-free
[6] = system: CEM-SS; test: Inhibitory activity against HIV-2 virus replication as determined by an XTT endpoint by 50%; assay type: functional; settings: Homo sapiens, read-out: ED50 (the source's name)
[7] = In vitro therapeutic index was evaluated; assay type: functional

CC(C)(C)OC(=O)N[C@@H](Cc1ccccc1)[C@H](O)CNC[C@@H](O)[C@H](Cc1ccc(OCCCc2nc3ccccc3o2)cc1)NC(=O)OC(C)(C)C
EC50 [1]: 1.5 µM | IC50 [2]: 0.28 µM | CC50 [3]: 5.9 µM | Log k' [4]: 1.98

CC(C)(C)OC(=O)N[C@@H](Cc1ccccc1)[C@H](O)CNC[C@@H](O)[C@H](Cc1ccc(OCc2ccccc2)cc1)NC(=O)OC(C)(C)C
EC50 [1]: 0.17 µM | IC50 [2]: 0.3 µM | CC50 [3]: 1.8 µM | Log k' [4]: 2

CC(C)(C)OC(=O)N[C@@H](Cc1ccccc1)[C@H](O)CNC[C@@H](O)[C@H](Cc1ccc(OCCN2CCOC2=O)cc1)NC(=O)OC(C)(C)C
EC50 [1]: 0.08 µM | IC50 [2]: 0.04 µM | CC50 [3]: 52 µM | Log k' [4]: 0.82

CC(C)(C)OC(=O)N[C@@H](Cc1ccccc1)[C@H](O)CNC[C@@H](O)[C@H](Cc1ccccc1)NC(=O)OC(C)(C)C
EC50 [1]: 0.08 µM | half-life [5]: 4 h | EC50 [6]: 0.12 µM | CC50 [3]: 8.5 µM | Log k' [4]: 1.39 | Therapeutic index [7]: 100

CC(O)COc1ccc(C[C@H](NC(=O)OC(C)(C)C)[C@H](O)CNC[C@@H](O)[C@H](Cc2ccccc2)NC(=O)OC(C)(C)C)cc1 (stereo partly specified)
EC50 [1]: 0.07 µM | IC50 [2]: 0.049 µM | CC50 [3]: 22 µM | Log k' [4]: 1.02

COCCCCOc1ccc(C[C@H](NC(=O)OC(C)(C)C)[C@H](O)CNC[C@@H](O)[C@H](Cc2ccccc2)NC(=O)OC(C)(C)C)cc1
EC50 [1]: < 0.03 µM | IC50 [2]: 0.05 µM | CC50 [3]: 12 µM | Log k' [4]: 1.6

CC(C)(C)OC(=O)N[C@@H](Cc1ccccc1)[C@H](O)CNC[C@@H](O)[C@H](Cc1ccc(OCc2nc3ccccc3o2)cc1)NC(=O)OC(C)(C)C
EC50 [1]: 0.11 µM | IC50 [2]: 0.32 µM | CC50 [3]: 1.9 µM | Log k' [4]: 1.69

CC(C)(C)OC(=O)N[C@@H](Cc1ccccc1)[C@H](O)CNC[C@@H](O)[C@H](Cc1ccccc1O)NC(=O)OC(C)(C)C
EC50 [1]: 1.2 µM | IC50 [2]: 0.3 µM | CC50 [3]: 17 µM | Log k' [4]: 1.16

CC(C)(C)OC(=O)N[C@@H](Cc1ccccc1)[C@H](O)CNC[C@@H](O)[C@H](Cc1ccc(OCCc2ccccn2)cc1)NC(=O)OC(C)(C)C
EC50 [1]: 0.04 µM | IC50 [2]: 0.05 µM | CC50 [3]: 5 µM | Log k' [4]: 1.39

CC(C)(C)OC(=O)N[C@@H](Cc1ccccc1)[C@H](O)CNC[C@@H](O)[C@H](Cc1ccc(OCCCN2CCOCC2=O)cc1)NC(=O)OC(C)(C)C
EC50 [1]: 0.056 µM | IC50 [2]: 0.08 µM | CC50 [3]: 59 µM | Log k' [4]: 0.92

CC(C)(C)OC(=O)N[C@@H](Cc1ccccc1)[C@H](O)CNC[C@@H](O)[C@H](Cc1ccc(OCC(=O)N2CCOCC2)cc1)NC(=O)OC(C)(C)C
EC50 [1]: 0.1 µM | IC50 [2]: 0.1 µM | CC50 [3]: > 100 µM | Log k' [4]: 0.87

CC(C)(C)OC(=O)N[C@@H](Cc1ccccc1)[C@H](O)CNC[C@@H](O)[C@H](Cc1ccc(OCCO)cc1)NC(=O)OC(C)(C)C
EC50 [1]: 0.06 µM | IC50 [2]: 0.064 µM | CC50 [3]: 56 µM | Log k' [4]: 0.82

CC(C)(C)OC(=O)N[C@@H](Cc1ccccc1)[C@H](O)CNC[C@@H](O)[C@H](Cc1ccc(OCC(=O)N2CCCCC2)cc1)NC(=O)OC(C)(C)C
EC50 [1]: 0.07 µM | IC50 [2]: 0.09 µM | CC50 [3]: 17 µM | Log k' [4]: 1.33

CC(C)(C)OC(=O)N[C@@H](Cc1ccccc1)[C@H](O)CNC[C@@H](O)[C@H](Cc1ccc(OCC(=O)O)cc1)NC(=O)OC(C)(C)C
EC50 [1]: 74 µM | IC50 [2]: 0.15 µM | CC50 [3]: > 100 µM | Log k' [4]: 0.12

CC(C)(C)OC(=O)N[C@@H](Cc1ccccc1)[C@H](O)CNC[C@@H](O)[C@H](Cc1ccc(O)cc1)NC(=O)OC(C)(C)C
EC50 [1]: 0.09 µM | IC50 [2]: 0.1 µM | CC50 [3]: 32 µM | Log k' [4]: 0.79

CN(C)C(=O)OCCOc1ccc(C[C@H](NC(=O)OC(C)(C)C)[C@H](O)CNC[C@@H](O)[C@H](Cc2ccccc2)NC(=O)OC(C)(C)C)cc1
EC50 [1]: 0.12 µM | IC50 [2]: 0.04 µM | CC50 [3]: 16 µM | Log k' [4]: 1.24

CC(C)(C)OC(=O)N[C@@H](Cc1ccccc1)[C@H](O)CNC[C@@H](O)[C@H](Cc1ccc(OCCOc2cccnc2)cc1)NC(=O)OC(C)(C)C
EC50 [1]: 0.04 µM | IC50 [2]: 0.06 µM | CC50 [3]: 18 µM | Log k' [4]: 1.25

CC(C)(C)OC(=O)N[C@@H](Cc1ccccc1)[C@H](O)CNC[C@@H](O)[C@H](Cc1ccc(COC(=O)N2CCOCC2)cc1)NC(=O)OC(C)(C)C
EC50 [1]: 0.04 µM | IC50 [2]: 0.03 µM | CC50 [3]: 27 µM | Log k' [4]: 1.23

CN1CCN(CCOc2ccc(C[C@H](NC(=O)OC(C)(C)C)[C@H](O)CNC[C@@H](O)[C@H](Cc3ccccc3)NC(=O)OC(C)(C)C)cc2)C1=O
EC50 [1]: 0.05 µM | IC50 [2]: 0.06 µM | CC50 [3]: 50 µM | Log k' [4]: 1.04

CC(C)(C)OC(=O)N[C@@H](Cc1ccccc1)[C@H](O)CNC[C@@H](O)[C@H](Cc1cccc(O)c1)NC(=O)OC(C)(C)C
EC50 [1]: 0.15 µM | IC50 [2]: 0.2 µM | CC50 [3]: 17 µM | Log k' [4]: 0.92

CC(C)(C)OC(=O)N[C@@H](Cc1ccccc1)[C@H](O)CNC[C@@H](O)[C@H](Cc1cccc(OCc2ccccc2)c1)NC(=O)OC(C)(C)C
EC50 [1]: 0.09 µM | IC50 [2]: 0.14 µM | CC50 [3]: 1.9 µM | Log k' [4]: 2.04

CC(C)(C)OC(=O)N[C@@H](Cc1ccccc1)[C@H](O)CNC[C@@H](O)[C@H](Cc1ccc(OCCCN2CCOCC2)cc1)NC(=O)OC(C)(C)C
EC50 [1]: 0.04 µM | IC50 [2]: 0.086 µM | CC50 [3]: 17 µM | Log k' [4]: 1.28

CC(C)(C)OC(=O)N[C@@H](Cc1ccccc1)[C@H](O)CNC[C@@H](O)[C@H](Cc1ccc(OCCn2ccnc2)cc1)NC(=O)OC(C)(C)C
EC50 [1]: 0.05 µM | IC50 [2]: 0.09 µM | CC50 [3]: 22 µM | Log k' [4]: 0.96

CC(C)(C)OC(=O)N[C@@H](Cc1ccccc1)[C@H](O)CNC[C@@H](O)[C@H](Cc1ccc(OCCN2CCOCC2)cc1)NC(=O)OC(C)(C)C
EC50 [1]: 0.07 µM | IC50 [2]: 0.1 µM | CC50 [3]: 25 µM | Log k' [4]: 1.18

CC(C)(C)OC(=O)N[C@@H](Cc1ccccc1)[C@H](O)CNC[C@@H](O)[C@H](Cc1ccc(CCC(=O)N2CCOCC2)cc1)NC(=O)OC(C)(C)C
EC50 [1]: 0.21 µM | IC50 [2]: 0.085 µM | CC50 [3]: 58 µM | Log k' [4]: 1.03

CC(C)(C)OC(=O)N[C@@H](Cc1ccccc1)[C@H](O)CNC[C@@H](O)[C@H](Cc1ccc2ncccc2c1)NC(=O)OC(C)(C)C
EC50 [1]: 0.03 µM | IC50 [2]: 0.13 µM | CC50 [3]: 15 µM

CC(C)(C)OC(=O)N[C@@H](Cc1ccccc1)[C@H](O)CNC[C@@H](O)[C@H](Cc1ccncc1)NC(=O)OC(C)(C)C
EC50 [1]: 0.54 µM | IC50 [2]: 0.4 µM | CC50 [3]: 67 µM | Log k' [4]: 0.8

COCCOc1ccc(C[C@H](NC(=O)OC(C)(C)C)[C@H](O)CNC[C@@H](O)[C@H](Cc2ccccc2)NC(=O)OC(C)(C)C)cc1
EC50 [1]: 0.07 µM | IC50 [2]: 0.072 µM | CC50 [3]: 20 µM | Log k' [4]: 1.19

CC(C)(O)COc1ccc(C[C@H](NC(=O)OC(C)(C)C)[C@H](O)CNC[C@@H](O)[C@H](Cc2ccccc2)NC(=O)OC(C)(C)C)cc1
EC50 [1]: 0.09 µM | IC50 [2]: 0.12 µM | CC50 [3]: 49 µM | Log k' [4]: 1.22

CC(C)(C)OC(=O)N[C@@H](Cc1ccccc1)[C@H](O)CNC[C@@H](O)[C@H](Cc1ccc(OCC(O)c2ccccn2)cc1)NC(=O)OC(C)(C)C (stereo partly specified)
EC50 [1]: 0.2 µM | IC50 [2]: 0.11 µM | CC50 [3]: 58 µM | Log k' [4]: 0.81
